Results taken from the supplement of paper PMC11451515.

Test system: SEM cells
Assay: cell viability relative to DMSO control; higher = less cytotoxic
Conditions: 48 h
How it was run: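 NOMO1 or SEM (500 cells/well) or P12-Ichikawa (1000 cells/well) leukemia cells were adapted for at least four passages in each medium. They were seeded in 1536-well plates (5 μl) and pin-dosed with library compounds in DMSO over an 11-point threefold series, 47 μM to 0.79 nM. CellTiter-Glo One luminescence was read after 48 h at 37°C. Viability is the per-plate percentage relative to DMSO wells, with cell-free wells as background.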

[1] = HPLM + 10% dialyzed FBS, 0.000781 µM
[2] = HPLM + 10% dialyzed FBS, 0.00234 µM
[3] = HPLM + 10% dialyzed FBS, 0.00702 µM
[4] = HPLM + 10% dialyzed FBS, 0.0211 µM
[5] = HPLM + 10% dialyzed FBS, 0.0632 µM
[6] = HPLM + 10% dialyzed FBS, 0.19 µM
[7] = HPLM + 10% dialyzed FBS, 0.569 µM
[8] = HPLM + 10% dialyzed FBS, 1.71 µM
[9] = HPLM + 10% dialyzed FBS, 5.12 µM
[10] = HPLM + 10% dialyzed FBS, 15.4 µM
[11] = HPLM + 10% dialyzed FBS, 46.1 µM
[12] = RPMI 5 mM glucose + 10% FBS, 0.000781 µM
[13] = RPMI 5 mM glucose + 10% FBS, 0.00234 µM
[14] = RPMI 5 mM glucose + 10% FBS, 0.00702 µM
[15] = RPMI 5 mM glucose + 10% FBS, 0.0211 µM
[16] = RPMI 5 mM glucose + 10% FBS, 0.0632 µM
[17] = RPMI 5 mM glucose + 10% FBS, 0.19 µM
[18] = RPMI 5 mM glucose + 10% FBS, 0.569 µM
[19] = RPMI 5 mM glucose + 10% FBS, 1.71 µM
[20] = RPMI 5 mM glucose + 10% FBS, 5.12 µM
[21] = RPMI 5 mM glucose + 10% FBS, 15.4 µM
[22] = RPMI 5 mM glucose + 10% FBS, 46.1 µM
[23] = RPMI 5 mM glucose + 10% dialyzed FBS, 0.000781 µM
[24] = RPMI 5 mM glucose + 10% dialyzed FBS, 0.00234 µM
[25] = RPMI 5 mM glucose + 10% dialyzed FBS, 0.00702 µM
[26] = RPMI 5 mM glucose + 10% dialyzed FBS, 0.0211 µM
[27] = RPMI 5 mM glucose + 10% dialyzed FBS, 0.0632 µM
[28] = RPMI 5 mM glucose + 10% dialyzed FBS, 0.19 µM
[29] = RPMI 5 mM glucose + 10% dialyzed FBS, 0.569 µM
[30] = RPMI 5 mM glucose + 10% dialyzed FBS, 1.71 µM
[31] = RPMI 5 mM glucose + 10% dialyzed FBS, 5.12 µM
[32] = RPMI 5 mM glucose + 10% dialyzed FBS, 15.4 µM
[33] = RPMI 5 mM glucose + 10% dialyzed FBS, 46.1 µM

| SMILES | cell viability [1] | cell viability [2] | cell viability [3] | cell viability [4] | cell viability [5] | cell viability [6] | cell viability [7] | cell viability [8] | cell viability [9] | cell viability [10] | cell viability [11] | cell viability [12] | cell viability [13] | cell viability [14] | cell viability [15] | cell viability [16] | cell viability [17] | cell viability [18] | cell viability [19] | cell viability [20] | cell viability [21] | cell viability [22] | cell viability [23] | cell viability [24] | cell viability [25] | cell viability [26] | cell viability [27] | cell viability [28] | cell viability [29] | cell viability [30] | cell viability [31] | cell viability [32] | cell viability [33] |
| --- | --- | --- | --- | --- | --- | --- | --- | --- | --- | --- | --- | --- | --- | --- | --- | --- | --- | --- | --- | --- | --- | --- | --- | --- | --- | --- | --- | --- | --- | --- | --- | --- | --- |
| CO[C@@H]1[C@@H](O)[C@H](O)[C@@H](n2c3c(Cl)cccc3c3c4c(c5c6cccc(Cl)c6[nH]c5c32)C(=O)NC4=O)O[C@H]1CO | 99.7% | 90.8% | 105% | 112% | 96.9% | 81.2% | 54.5% | 13.8% | 9.51% | 5.16% | 5.04% | 137% | 118% | 113% | 112% | 108% | 70.1% | 28.1% | 11.5% | 6.56% | 4.38% | 4.8% | 99.2% | 113% | 95.1% | 100% | 92.4% | 82.9% | 43.1% | 11% | 7.94% | 4.29% | 3.62% |
| C=CC(=O)Nc1ccc2ncnc(Nc3ccc(OCc4cccc(F)c4)c(Cl)c3)c2c1 | 75.8% | 82.7% | 83.9% | 84.4% | 103% | 91.2% | 89.7% | 101% | 77.5% | 21.2% | 18.1% | 102% | 105% | 115% | 117% | 95.3% | 110% | 118% | 116% | 76.1% | 14.6% | 12.5% | 85.5% | 87.5% | 88.4% | 92.4% | 102% | 92.4% | 93% | 107% | 77% | 19.9% | 11.1% |
| Cc1cnc(Nc2ccc(CN3CCOCC3)cc2)nc1Nc1cccc([S+](=O)([O-])NC(C)(C)C)c1 | 65% | 83.2% | 77.8% | 72.9% | 83.4% | 39.3% | 58% | 23.1% | 5.99% | 2.23% | 1.78% | 87.5% | 86.9% | 102% | 87.8% | 83.5% | 44% | 59.3% | 19.4% | 5.03% | 2.53% | 2.58% | 69.5% | 81.9% | 82.4% | 86% | 84.2% | 37.7% | 20.7% | 16.5% | 6.18% | 2.42% | 2.01% |
| Cn1cnc([N+](=O)[O-])c1Sc1ncnc2nc[nH]c12 | 83.9% | 90.7% | 99.3% | 88% | 101% | 100% | 95.7% | 83% | 103% | 24.4% | 20.8% | 87.3% | 86.8% | 93.4% | 108% | 88.2% | 92.1% | 100% | 43.5% | 23.8% | 24.9% | 15.4% | 90.3% | 82.8% | 84.6% | 71.8% | 88.9% | 89.1% | 77% | 32.1% | 28.7% | 20.7% | 14.3% |
| CC(C)Cn1cnc2c(N)nc3ccccc3c21 | 98.8% | 107% | 106% | 105% | 110% | 110% | 104% | 93.5% | 102% | 91.8% | 77.1% | 104% | 124% | 103% | 115% | 104% | 111% | 104% | 94.1% | 111% | 105% | 72.1% | 105% | 118% | 117% | 116% | 108% | 105% | 120% | 113% | 93.8% | 90.6% | 92% |
| CCCCCCCCCCCC/1=C(O)/C(=O)/C=C(O)\C1=O | 98.9% | 111% | 126% | 132% | 128% | 138% | 118% | 144% | 130% | 127% | 130% | – | – | – | – | – | – | – | – | – | – | – | 107% | 120% | 126% | 132% | 131% | 138% | 134% | 140% | 137% | 146% | 129% |
| OC[C@H]1OC(OC2=CC3=C(C(=C2)O)C(=O)\C(=C/O3)C4=CC=C(O)C=C4)[C@H](O)[C@@H](O)[C@@H]1O (stereo partly drawn) | 93.7% | 92.9% | 92% | 98.1% | 93% | 79.9% | 69.7% | 93.4% | 81.6% | 78.6% | 65.3% | 97.9% | 86.8% | 111% | 102% | 117% | 89.6% | 89% | 98% | 86.4% | 92.4% | 94.1% | 86.3% | 89.1% | 114% | 94.7% | 106% | 88.3% | 89.8% | 96.6% | 90.3% | 90.1% | 95.8% |
| CC1=C(/C=C/C(C)=C/C=C/C(C)=C/C(=O)O)C(C)(C)CCC1 | 111% | 114% | 116% | 129% | 133% | 123% | 137% | 145% | 122% | 115% | 102% | 118% | 116% | 139% | 123% | 120% | 123% | 121% | 155% | 124% | 113% | 101% | 112% | 107% | 128% | 99.8% | 110% | 120% | 120% | 144% | 102% | 98.3% | 84.8% |
